Assay [1] addresses T1, Prostaglandin E2 receptor EP3 subtype (Homo sapiens, UniProt P43115).
T1 sequence (P43115 whole entry): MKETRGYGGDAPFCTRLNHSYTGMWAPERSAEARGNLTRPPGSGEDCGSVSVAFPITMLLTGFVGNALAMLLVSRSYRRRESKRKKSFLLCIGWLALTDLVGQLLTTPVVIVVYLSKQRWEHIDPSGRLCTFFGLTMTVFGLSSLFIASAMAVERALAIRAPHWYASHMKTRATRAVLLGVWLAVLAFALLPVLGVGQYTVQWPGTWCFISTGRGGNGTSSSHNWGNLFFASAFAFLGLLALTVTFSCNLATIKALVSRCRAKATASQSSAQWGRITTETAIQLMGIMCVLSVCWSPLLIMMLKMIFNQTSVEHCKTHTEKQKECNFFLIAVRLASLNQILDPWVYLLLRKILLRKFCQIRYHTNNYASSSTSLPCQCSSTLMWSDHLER
Description: Displacement of [3H]-PGE2 from human EP3 receptor expressed in HEK293 cell membranes after 90 mins by topcount scintillation counting analysis. (In general: Displacement assays read how much labelled ligand stays bound in the presence of the test substance.)

The target in assay [2] is T2, Prostaglandin E2 receptor EP1 subtype (Homo sapiens, UniProt P34995).
T2 sequence (P34995 whole entry): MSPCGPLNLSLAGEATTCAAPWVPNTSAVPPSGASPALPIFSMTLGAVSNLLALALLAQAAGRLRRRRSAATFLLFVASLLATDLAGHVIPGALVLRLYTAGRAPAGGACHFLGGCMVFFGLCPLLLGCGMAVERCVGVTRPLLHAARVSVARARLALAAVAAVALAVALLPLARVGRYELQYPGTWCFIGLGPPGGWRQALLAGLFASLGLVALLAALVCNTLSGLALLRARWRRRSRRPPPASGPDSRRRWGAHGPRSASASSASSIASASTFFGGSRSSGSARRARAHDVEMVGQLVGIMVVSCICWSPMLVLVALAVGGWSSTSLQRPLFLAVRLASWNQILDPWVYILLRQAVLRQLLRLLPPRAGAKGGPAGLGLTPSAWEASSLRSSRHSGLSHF
Description: Displacement of [3H]-PGE2 from human EP1 receptor expressed in recombinant HEK293 cell membranes after 90 mins by topcount scintillation counting analysis.

Usually Ki stands for the dissociation constant of the complex between target and ligand, obtained from inhibition or displacement. In the case of `C[C@H](NC(=O)[C@H]1CCCCN1CCOc1ccccc1)c1ccc(C(=O)O)cc1`, the figures for the Ki in assay [1] and in assay [2] were above 14 µM and above 17.5 µM, respectively.

Values taken from ChEMBL document CHEMBL3112423, “Selective EP4 Antagonist May Be Useful in Treating Arthritis and Arthritic Pain” (ACS Med Chem Lett, 2014).
